Data: patent US7635697B2, “Farnesyl protein transferase inhibitors and methods for treating proliferative diseases” (Schering Corporation, priority 2004, dated 2009)
“And” between values parts separate entries of the source, which are not always exact repeats. Identical values can stand only once.

Experiments:
[1] = target: purified human farnesyl protein transferase (Homo sapiens, UniProt P49354+P49356); assay: FPT activity: transfer of [3H] farnesyl from [3H] farnesyl pyrophosphate to biotinylated H-ras peptide (SPA); assay type: biochemical; conditions: ranges are stated for a listed group of compounds; range ends given as 'about <' / 'about >'
Description: FPT activity was determined by measuring the transfer of [^3H] farnesyl from [^3H] farnesyl pyrophosphate to a biotinylated peptide derived from the C-terminus of H-ras (biotin-CVLS). The reaction mixture contains: 50 mM Tris pH7.7, 5 mM MgCl2, 5 μM Zn^++, 5 mM DTT, 0.1% Triton-X, 0.05 μM peptide, 0.03 nM purified human farnesyl protein transferase, 0.180 μM [^3H] farnesyl pyrophosphate, plus the indicated concentration of tricyclic compound or vehicle control in a total volume of 100 μl. The reaction was incubated in a Vortemp shaking incubator at 37° C., 45 RPM for 60 minutes and stopped with 150 μl of 0.25 M EDTA containing 0.5% BSA and 1.3 mg/ml Streptavidin SPA beads. Radioactivity was measured in a Wallach 1450 Microbeta liquid scintillation counter. Percent inhibition was calculated relative to the vehicle control.

Human tumor cells = assay: Soft Agar Assay (anchorage-independent growth, colony count); assay type: cell-based; conditions: ranges are stated for a listed group of compounds, range ends given as 'about <' / 'about >'
Description: Anchorage-independent growth is a characteristic of tumorigenic cell lines. Human tumor cells can be suspended in growth medium containing 0.3% agarose and an indicated concentration of a farnesyl transferase inhibitor. The solution can be overlayed onto growth medium solidified with 0.6% agarose containing the same concentration of farnesyl transferase inhibitor as the top layer. After the top layer is solidified, plates can be incubated for 10-16 days at 37° C. under 5% CO2 to allow colony outgrowth. After incubation, the colonies can be stained by overlaying the agar with a solution of MTT (3-[4,5-dimethyl-thiazol-2-yl]-2,5-diphenyltetrazolium bromide, Thiazolyl blue) (1 mg/mL in PBS). Colonies can be counted and the IC50's can be determined.

## O=C(Nc1cccc(Cn2ccnc2)c1)[C@H]1CN(C2c3ccc(Cl)cc3CCc3cccnc32)CCN1 (mixture of isomers) [(14.2)]
[1]
  IC50: 50 to 8900 pM
Human tumor cells; Homo sapiens
  IC50: 300 to 50000 pM

## CC(C)(C)OC(=O)N1CCN(C2c3ccc(Cl)cc3CCc3cc(Br)cnc32)CC1C(=O)Nc1cccc(Cn2ccnc2)c1 (single isomer, unassigned) [(1.3)]
[1]
  IC50: 50 to 8900 pM and 50 to 2700 pM and 50 to 1200 pM
Human tumor cells; Homo sapiens
  IC50: 300 to 50000 pM

## CC(C)(C)OC(=O)N1CCN(C2c3ccc(Cl)cc3CCc3cc(Br)cnc32)CC1C(=O)Nc1cccc(Cn2ccnc2)c1 (single isomer, unassigned) [(1.4)]
[1]
  IC50: 50 to 8900 pM and 50 to 2700 pM and 50 to 1200 pM

## Cc1cncn1Cc1cccc(NC(=O)C2CN(C3c4ccc(Cl)cc4CCc4cccnc43)CCN2C(=O)OC2CCCCC2)c1 (single isomer, unassigned) [(32.1)]
[1]
  IC50: 50 to 8900 pM and 50 to 2700 pM and 50 to 1200 pM
Human tumor cells; Homo sapiens
  IC50: 300 to 50000 pM

## Cc1cncn1Cc1cccc(NC(=O)C2CN(C3c4ccc(Cl)cc4CCc4cccnc43)CCN2C(=O)OC2CCCCC2)c1 (single isomer, unassigned) [(32.2)]
[1]
  IC50: 50 to 8900 pM

## Cc1cn(Cc2cccc(NC(=O)C3CN([C@@H]4c5ccc(Cl)cc5CCc5cc(Br)cnc54)CCN3)c2)cn1 (some centres unmarked) [(4.2)]
[1]
  IC50: 50 to 8900 pM
Human tumor cells; Homo sapiens
  IC50: 300 to 50000 pM

## Cc1cn(Cc2cccc(NC(=O)C3CN(C4c5ccc(Cl)cc5CCc5cc(Br)cnc54)CCN3)c2)cn1 (centres unmarked) [(4.3)]
[1]
  IC50: 50 to 8900 pM
Human tumor cells; Homo sapiens
  IC50: 300 to 50000 pM

## Cc1cn(Cc2cccc(NC(=O)C3CN([C@@H]4c5ccc(Cl)cc5CCc5cc(Br)cnc54)CCN3C(=O)NC3CCCCC3)c2)cn1 (some centres unmarked) [(5.1)]
[1]
  IC50: 50 to 8900 pM and 50 to 2700 pM
Human tumor cells; Homo sapiens
  IC50: 300 to 50000 pM

## Cc1cn(Cc2cccc(NC(=O)C3CN(C4c5ccc(Cl)cc5CCc5cc(Br)cnc54)CCN3C(=O)NC3CCCCC3)c2)cn1 (centres unmarked) [(6.1)]
[1]
  IC50: 50 to 8900 pM and 50 to 2700 pM
Human tumor cells; Homo sapiens
  IC50: 300 to 50000 pM

## O=C(Nc1cccc(Cn2ccnc2)c1)[C@@H]1CN(C2c3ccc(Cl)cc3CCc3cc(Br)cnc32)CCN1C1c2ccc(Cl)cc2CCc2cc(Br)cnc21 (some centres unmarked) [(12.1)]
[1]
  IC50: 50 to 8900 pM

## O=C(Nc1cccc(Cn2ccnc2)c1)[C@@H]1CN(C2c3ccc(Cl)cc3CCc3cc(Br)cnc32)CCN1 (some centres unmarked) [(12.2)]
[1]
  IC50: 50 to 8900 pM

## O=C(Nc1cccc(Cn2ccnc2)c1)[C@H]1CN(C2c3ccc(Cl)cc3CCc3cccnc32)CCN1C1c2ccc(Cl)cc2CCc2cccnc21 (some centres unmarked) [(14.1)]
Human tumor cells; Homo sapiens
  IC50: 300 to 50000 pM

## O=C(Nc1cccc(Cn2ccnc2)c1)[C@H]1CNCCN1C1c2ccc(Cl)cc2CCc2cccnc21 (some centres unmarked) [(14.3)]
[1]
  IC50: 50 to 8900 pM
Human tumor cells; Homo sapiens
  IC50: 300 to 50000 pM

## O=C(Nc1cccc(Cn2ccnc2)c1)C1CN(C2c3ccc(Cl)cc3CCc3cccnc32)CCN1C(=O)OC1CCCCC1 (centres unmarked) [(15.1)]
[1]
  IC50: 50 to 8900 pM and 50 to 2700 pM and 50 to 1200 pM
Human tumor cells; Homo sapiens
  IC50: 300 to 50000 pM

## O=C(Nc1cccc(Cn2ccnc2)c1)C1CN([C@@H]2c3ccc(Cl)cc3CCc3cccnc32)CCN1C(=O)OC1CCCCC1 (some centres unmarked) [(15.2)]
[1]
  IC50: 50 to 8900 pM and 50 to 2700 pM and 50 to 1200 pM
Human tumor cells; Homo sapiens
  IC50: 300 to 50000 pM

## O=C(C1CN(C2c3ccc(Cl)cc3CCc3cccnc32)CCN1C(=O)OC1CCCCC1)N(Cc1ccccc1)c1cccc(Cn2ccnc2)c1 (centres unmarked) [(16.1)]
[1]
  IC50: 50 to 8900 pM
Human tumor cells; Homo sapiens
  IC50: 300 to 50000 pM

## Cc1cn(Cc2cccc(NC(=O)C3CN(C4c5ccc(Cl)cc5CCc5cccnc54)CCN3C(=O)OC3CCCCC3)c2)cn1 (centres unmarked) [(21.1)]
[1]
  IC50: 50 to 8900 pM and 50 to 2700 pM and 50 to 1200 pM
Human tumor cells; Homo sapiens
  IC50: 300 to 50000 pM

## Cc1cn(Cc2cccc(NC(=O)C3CN([C@@H]4c5ccc(Cl)cc5CCc5cccnc54)CCN3C(=O)OC3CCCCC3)c2)cn1 (some centres unmarked) [(22.1)]
[1]
  IC50: 50 to 8900 pM and 50 to 2700 pM and 50 to 1200 pM
Human tumor cells; Homo sapiens
  IC50: 300 to 50000 pM

## Cc1cn(Cc2cccc(NC(=O)C3CN(C4c5ccc(Cl)cc5CCc5cccnc54)CCN3C(=O)NC3CCCCC3)c2)cn1 (centres unmarked) [(26.1)]
[1]
  IC50: 50 to 8900 pM and 50 to 2700 pM and 50 to 1200 pM

## Cc1cn(Cc2cccc(NC(=O)C3CN(C4c5ccc(Cl)cc5CCc5cccnc54)CCN3C(=O)Nc3ccc(Cl)cc3)c2)cn1 (centres unmarked) [(27.1)]
[1]
  IC50: 50 to 8900 pM

## Cc1cn(Cc2cccc(NC(=O)C3CN(C4c5ccc(Cl)cc5CCc5cccnc54)CCN3C(=O)Cc3ccc(Cl)cc3)c2)cn1 (centres unmarked) [(28.1)]
[1]
  IC50: 50 to 8900 pM and 50 to 2700 pM and 50 to 1200 pM
Human tumor cells; Homo sapiens
  IC50: 300 to 50000 pM

## Cc1cn(Cc2cccc(NC(=O)C3CN(C4c5ccc(Cl)cc5CCc5cccnc54)CCN3S(C)(=O)=O)c2)cn1 (centres unmarked) [(29.1)]
[1]
  IC50: 50 to 8900 pM and 50 to 2700 pM and 50 to 1200 pM

## Cc1cn(Cc2cccc(NC(=O)C3CN([C@@H]4c5ccc(Cl)cc5CCc5cccnc54)CCN3C(=O)CC3CCN(C(N)=O)CC3)c2)cn1 (some centres unmarked) [(30.1)]
[1]
  IC50: 50 to 8900 pM and 50 to 2700 pM and 50 to 1200 pM
Human tumor cells; Homo sapiens
  IC50: 300 to 50000 pM

## Cc1nccn1Cc1cccc(NC(=O)C2CN(C3c4ccc(Cl)cc4CCc4cccnc43)CCN2C(=O)OC2CCCCC2)c1 (centres unmarked) [(31.1)]
Human tumor cells
  IC50: < 500 pM

## CC(C)(C)OC(=O)N1CCN(C2c3ccc(Cl)cc3CCc3cccnc32)C(C(=O)Nc2cccc(Cn3ccnc3)c2)C1 (centres unmarked) [(40.1)]
Human tumor cells; Homo sapiens
  IC50: 300 to 50000 pM

## CC(C)(C)OC(=O)N1CCN([C@@H]2c3ccc(Cl)cc3CCc3cccnc32)C(C(=O)Nc2cccc(Cn3ccnc3)c2)C1 (some centres unmarked) [(40.2)]
Human tumor cells; Homo sapiens
  IC50: 300 to 50000 pM

## NC(=O)N1CCC(CC(=O)N2CCN(C3c4ccc(Cl)cc4CCc4cccnc43)C(C(=O)Nc3cccc(Cn4ccnc4)c3)C2)CC1 (centres unmarked) [(45.1)]
[1]
  IC50: 50 to 8900 pM
Human tumor cells; Homo sapiens
  IC50: 300 to 50000 pM

## Cc1cn(CCc2ccccc2NC(=O)[C@H]2CN([C@H]3c4ccc(Cl)cc4CCc4cccnc43)CCN2C(=O)OC2CCCCC2)cn1 [(47.1)]
[1]
  IC50: 50 to 8900 pM
